Experimental data from patent publication US12371428B2 (Exelixis, Inc., priority 2019, dated 2025).

Columns and labels:
[1] = target: Met (phospho-Met, HGF-stimulated PC-3 prostate cancer cells) (Homo sapiens (Human), UniProt P08581); assay: Met autophosphorylation ELISA in PC-3 cells (Example F); assay type: cell-based; settings: cellular activity; Met autophosphorylation ELISA in PC-3 cells; read-out: c-Met IC50
Summary of the method: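 PC-3 cells, serum-starved 3 h, were treated with compounds (8-point dose curve, 0.3% DMSO final) for 1 h, then stimulated with 100 ng/mL recombinant human HGF for 10 min. Lysate phospho-Met (panTyr) was quantified by sandwich ELISA; IC50 from 4-parameter logistic fit.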

[2] = target: KDR (phospho-KDR, VEGF165-stimulated HUVEC cells) (Homo sapiens (Human), UniProt P35968); assay: KDR autophosphorylation ELISA in HUVEC cells (Example G); assay type: cell-based; settings: cellular activity; KDR autophosphorylation ELISA in HUVEC cells
Summary of the method: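 First, endothelial cells were cultured a day, then kept without serum for another day. Next came 1 h with serially diluted compound, a brief 5 min VEGF165 stimulus (100 ng/mL), rapid lysis, and ELISA detection of receptor phosphorylation relative to stimulated and non-stimulated controls.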

Sequence of Met (phospho-Met, HGF-stimulated PC-3 prostate cancer cells) (P08581 25-1390): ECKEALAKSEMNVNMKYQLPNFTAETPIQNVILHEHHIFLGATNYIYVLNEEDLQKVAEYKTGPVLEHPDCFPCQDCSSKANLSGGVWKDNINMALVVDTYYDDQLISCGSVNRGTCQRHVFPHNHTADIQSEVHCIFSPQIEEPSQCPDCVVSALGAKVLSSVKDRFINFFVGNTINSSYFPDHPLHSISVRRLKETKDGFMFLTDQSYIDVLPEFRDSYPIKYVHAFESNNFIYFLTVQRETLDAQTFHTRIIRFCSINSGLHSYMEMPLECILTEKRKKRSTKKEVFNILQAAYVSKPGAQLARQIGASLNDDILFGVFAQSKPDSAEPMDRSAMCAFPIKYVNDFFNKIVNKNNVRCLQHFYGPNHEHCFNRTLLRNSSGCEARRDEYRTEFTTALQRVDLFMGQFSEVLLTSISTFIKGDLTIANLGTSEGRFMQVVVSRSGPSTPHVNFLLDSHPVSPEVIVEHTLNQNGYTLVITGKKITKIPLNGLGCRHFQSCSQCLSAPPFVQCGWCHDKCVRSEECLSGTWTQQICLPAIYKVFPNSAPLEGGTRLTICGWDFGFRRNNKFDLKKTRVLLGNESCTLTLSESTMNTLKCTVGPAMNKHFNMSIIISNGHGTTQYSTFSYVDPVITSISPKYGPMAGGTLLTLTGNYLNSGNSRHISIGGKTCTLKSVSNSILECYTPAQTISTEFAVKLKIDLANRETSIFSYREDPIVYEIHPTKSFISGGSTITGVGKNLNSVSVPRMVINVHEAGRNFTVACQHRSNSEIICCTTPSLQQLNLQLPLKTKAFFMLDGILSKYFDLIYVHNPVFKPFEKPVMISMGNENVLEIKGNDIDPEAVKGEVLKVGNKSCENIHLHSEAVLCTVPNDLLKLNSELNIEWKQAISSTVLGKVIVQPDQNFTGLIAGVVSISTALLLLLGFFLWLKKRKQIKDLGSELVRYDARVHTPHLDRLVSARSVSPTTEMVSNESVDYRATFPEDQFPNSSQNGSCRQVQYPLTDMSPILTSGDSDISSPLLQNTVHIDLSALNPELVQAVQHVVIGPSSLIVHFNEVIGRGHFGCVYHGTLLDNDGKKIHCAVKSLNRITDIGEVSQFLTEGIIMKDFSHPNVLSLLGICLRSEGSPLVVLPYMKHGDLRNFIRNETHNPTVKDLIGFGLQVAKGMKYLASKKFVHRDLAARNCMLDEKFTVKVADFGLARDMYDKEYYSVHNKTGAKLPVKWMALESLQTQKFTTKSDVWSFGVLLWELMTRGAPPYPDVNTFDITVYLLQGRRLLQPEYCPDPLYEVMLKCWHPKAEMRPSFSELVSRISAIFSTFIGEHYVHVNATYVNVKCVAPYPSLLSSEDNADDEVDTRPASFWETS
Sequence of KDR (phospho-KDR, VEGF165-stimulated HUVEC cells) (P35968 20-1356): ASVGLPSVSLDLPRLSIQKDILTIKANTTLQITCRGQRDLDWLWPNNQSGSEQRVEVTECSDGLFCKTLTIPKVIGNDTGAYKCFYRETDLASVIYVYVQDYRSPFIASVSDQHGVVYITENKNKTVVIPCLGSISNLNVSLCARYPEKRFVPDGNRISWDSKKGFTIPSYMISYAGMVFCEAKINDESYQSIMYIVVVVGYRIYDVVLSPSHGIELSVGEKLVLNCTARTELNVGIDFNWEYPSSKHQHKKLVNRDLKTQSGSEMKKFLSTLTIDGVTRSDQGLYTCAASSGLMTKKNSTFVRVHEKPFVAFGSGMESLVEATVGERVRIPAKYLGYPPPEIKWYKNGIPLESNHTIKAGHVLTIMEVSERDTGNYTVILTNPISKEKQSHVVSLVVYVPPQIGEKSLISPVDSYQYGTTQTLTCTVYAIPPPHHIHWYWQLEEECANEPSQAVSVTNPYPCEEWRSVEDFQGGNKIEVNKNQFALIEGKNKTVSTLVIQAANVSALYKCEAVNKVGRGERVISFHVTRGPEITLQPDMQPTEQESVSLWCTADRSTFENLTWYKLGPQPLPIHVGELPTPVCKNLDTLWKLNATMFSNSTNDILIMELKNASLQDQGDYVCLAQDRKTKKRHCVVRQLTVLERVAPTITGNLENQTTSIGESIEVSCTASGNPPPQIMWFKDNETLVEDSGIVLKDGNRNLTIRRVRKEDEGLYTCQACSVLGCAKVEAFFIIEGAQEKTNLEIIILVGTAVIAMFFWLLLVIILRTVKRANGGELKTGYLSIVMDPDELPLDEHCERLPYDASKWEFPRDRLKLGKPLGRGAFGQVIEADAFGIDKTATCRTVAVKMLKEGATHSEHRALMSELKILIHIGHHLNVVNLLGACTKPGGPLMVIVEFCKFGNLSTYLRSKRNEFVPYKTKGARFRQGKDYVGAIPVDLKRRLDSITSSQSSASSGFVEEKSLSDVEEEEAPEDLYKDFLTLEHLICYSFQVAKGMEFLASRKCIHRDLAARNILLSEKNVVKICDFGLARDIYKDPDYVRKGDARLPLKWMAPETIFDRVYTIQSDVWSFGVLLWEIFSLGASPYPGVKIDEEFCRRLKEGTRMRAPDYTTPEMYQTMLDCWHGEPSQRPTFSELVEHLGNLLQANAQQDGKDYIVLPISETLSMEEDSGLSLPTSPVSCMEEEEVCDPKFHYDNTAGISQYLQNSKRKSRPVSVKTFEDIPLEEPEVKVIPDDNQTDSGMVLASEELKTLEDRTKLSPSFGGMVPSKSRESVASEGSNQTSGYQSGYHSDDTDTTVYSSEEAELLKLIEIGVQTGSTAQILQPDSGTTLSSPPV

Row | IC50 [1] | IC50 [2] | SMILES
1 | < 100 nM | < 100 nM | COc1cnc2c(Oc3ccc(NC(=O)c4c(C)nc(C)c(-c5ccc(F)cc5C)c4O)cc3F)ccnc2c1 [Compound 178, N-[3-Fluoro-4-[(7-methoxy-1,5-naphthyridin-4-yl)oxy]phenyl]-5-(4-fluoro-2-methylphenyl)-4-hydroxy-2,6-dimethylpyridine-3-carboxamide]
2 | 100 to 300 nM | > 300 nM | COc1ccc2nccc(Oc3ccc(NC(=O)c4cn(C)c(C)c(-c5ccc(F)cc5C)c4=O)cc3F)c2n1 [Compound 183, N-[3-Fluoro-4-[(6-methoxy-1,5-naphthyridin-4-yl)oxy]phenyl]-5-(4-fluoro-2-methylphenyl)-1,6-dimethyl-4-oxopyridine-3-carboxamide]
3 | < 100 nM | 100 to 300 nM | COc1cc2nccc(Oc3ccc(NC(=O)c4cn(C)c(CO)c(-c5ccc(F)cc5)c4=O)cc3)c2nc1OC [Compound 221, N-[4-[(6,7-Dimethoxy-1,5-naphthyridin-4-yl)oxy]phenyl]-5-(4-fluorophenyl)-6-(hydroxymethyl)-1-methyl-4-oxopyridine-3-carboxamide]
4 | < 100 nM | > 300 nM | COc1cnc2c(Oc3ccc(NC(=O)c4nn(C)c(C)c(-c5ccc(F)cc5)c4=O)cc3F)ccnc2c1 [Compound 250, N-[3-Fluoro-4-[(7-methoxy-1,5-naphthyridin-4-yl)oxy]phenyl]-5-(4-fluorophenyl)-1,6-dimethyl-4-oxopyridazine-3-carboxamide]
5 | < 100 nM | < 100 nM | COc1cc2nccc(Oc3ccc(NC(=O)c4ccc(C)n(-c5ccc(F)cc5C)c4=O)cc3F)c2nc1OC [Compound 219, N-[4-[(6,7-Dimethoxy-1,5-naphthyridin-4-yl)oxy]-3-fluorophenyl]-1-(4-fluoro-2-methylphenyl)-6-methyl-2-oxopyridine-3-carboxamide]
6 | < 100 nM | < 100 nM | COc1cnc2c(Oc3ccc(NC(=O)c4n[nH]c(C)c(-c5ccc(F)cc5)c4=O)cc3)ccnc2c1 [Compound 245, 5-(4-Fluorophenyl)-N-[4-[(7-methoxy-1,5-naphthyridin-4-yl)oxy]phenyl]-6-methyl-4-oxo-1H-pyridazine-3-carboxamide]
7 | < 100 nM | < 100 nM | COc1cnc2c(Oc3ccc(NC(=O)c4ccc(C)n(-c5ccc(F)cc5C)c4=O)cc3)ccnc2c1 [Compound 226, 1-(4-Fluoro-2-methylphenyl)-N-[4-[(7-methoxy-1,5-naphthyridin-4-yl)oxy]phenyl]-6-methyl-2-oxopyridine-3-carboxamide]
8 | < 100 nM | > 300 nM | COc1cnc2c(Oc3ccc(NC(=O)c4cnc(C(F)(F)F)c(-c5ccc(F)cc5)c4O)cc3F)ccnc2c1 [Compound 241, N-[3-Fluoro-4-[(7-methoxy-1,5-naphthyridin-4-yl)oxy]phenyl]-5-(4-fluorophenyl)-4-hydroxy-6-(trifluoromethyl)pyridine-3-carboxamide]
9 | < 100 nM | > 300 nM | COc1cnc2c(Oc3ccc(NC(=O)c4nn(C)c(C)c(-c5ccc(F)cc5)c4=O)cc3)ccnc2c1 [Compound 251, 5-(4-Fluorophenyl)-N-[4-[(7-methoxy-1,5-naphthyridin-4-yl)oxy]phenyl]-1,6-dimethyl-4-oxopyridazine-3-carboxamide]

The remaining lines, values behind:

Row | SMILES | IC50 [1] | IC50 [2]
10 | COc1cc2nccc(Oc3ccc(NC(=O)c4c(C)ncc(-c5ccc(F)cc5)c4O)cc3F)c2nc1OC [Compound 237, N-[4-[(6,7-Dimethoxy-1,5-naphthyridin-4-yl)oxy]-3-fluorophenyl]-5-(4-fluorophenyl)-4-hydroxy-2-methylpyridine-3-carboxamide] | < 100 nM | < 100 nM
11 | COc1cnc2c(Oc3ccc(NC(=O)c4c(C)ncn(-c5ccc(F)cc5)c4=O)cc3F)ccnc2c1 [Compound 256, N-[3-Fluoro-4-[(7-methoxy-1,5-naphthyridin-4-yl)oxy]phenyl]-1-(4-fluorophenyl)-4-methyl-6-oxopyrimidine-5-carboxamide] | 100 to 300 nM | > 300 nM
12 | COc1cnc2c(Oc3ccc(NC(=O)c4n[nH]c(C)c(-c5ccc(F)cc5C)c4=O)cc3)ccnc2c1 [Compound 248, 5-(4-Fluoro-2-methylphenyl)-N-[4-[(7-methoxy-1,5-naphthyridin-4-yl)oxy]phenyl]-6-methyl-4-oxo-1H-pyridazine-3-carboxamide] | < 100 nM | > 300 nM
13 | COc1cc2nccc(Oc3ccc(NC(=O)c4c(C)nc(C)c(-c5ccc(F)cc5C)c4O)cc3F)c2nc1OC [Compound 177, N-[4-[(6,7-Dimethoxy-1,5-naphthyridin-4-yl)oxy]-3-fluorophenyl]-5-(4-fluoro-2-methylphenyl)-4-hydroxy-2,6-dimethylpyridine-3-carboxamide] | < 100 nM | < 100 nM
14 | CCc1nc(C)c(-c2ccc(F)cc2C)c(O)c1C(=O)Nc1ccc(Oc2ccnc3ccc(OC)nc23)c(F)c1 [Compound 206, 2-Ethyl-N-[3-fluoro-4-[(6-methoxy-1,5-naphthyridin-4-yl)oxy]phenyl]-5-(4-fluoro-2-methylphenyl)-4-hydroxy-6-methylpyridine-3-carboxamide] | < 100 nM | < 100 nM
15 | COCc1nc(C)c(-c2ccc(F)cc2)c(O)c1C(=O)Nc1ccc(Oc2ccnc3cc(OC)c(OC)nc23)cc1 [Compound 190, N-[4-[(6,7-Dimethoxy-1,5-naphthyridin-4-yl)oxy]phenyl]-5-(4-fluorophenyl)-4-hydroxy-2-(methoxymethyl)-6-methylpyridine-3-carboxamide] | < 100 nM | < 100 nM
16 | COCCOc1nc2c(Oc3ccc(NC(=O)c4ccc(C)n(-c5ccc(F)cc5)c4=O)cc3F)ccnc2cc1OC [Compound 227, N-[3-Fluoro-4-[[7-methoxy-6-(2-methoxyethoxy)-1,5-naphthyridin-4-yl]oxy]phenyl]-1-(4-fluorophenyl)-6-methyl-2-oxopyridine-3-carboxamide] | < 100 nM | < 100 nM
17 | COc1cnc2c(Oc3ccc(NC(=O)c4cnc(C)c(-c5ccc(F)cc5C)c4O)cc3)ccnc2c1 [Compound 176, 5-(4-Fluoro-2-methylphenyl)-4-hydroxy-N-[4-[(7-methoxy-1,5-naphthyridin-4-yl)oxy]phenyl]-6-methylpyridine-3-carboxamide] | < 100 nM | < 100 nM
18 | CCc1nc(C)c(-c2ccc(F)cc2C)c(O)c1C(=O)Nc1ccc(Oc2ccnc3cc(OC)c(OC)nc23)cc1 [Compound 203, N-[4-[(6,7-Dimethoxy-1,5-naphthyridin-4-yl)oxy]phenyl]-2-ethyl-5-(4-fluoro-2-methylphenyl)-4-hydroxy-6-methylpyridine-3-carboxamide] | < 100 nM | < 100 nM
19 | COc1cnc2c(Oc3ccc(NC(=O)c4cnc(CO)c(-c5ccc(F)cc5)c4O)cc3)ccnc2c1 [Compound 218, 5-(4-Fluorophenyl)-4-hydroxy-6-(hydroxymethyl)-N-[4-[(7-methoxy-1,5-naphthyridin-4-yl)oxy]phenyl]pyridine-3-carboxamide] | < 100 nM | < 100 nM
20 | COc1cnc2c(Oc3ccc(NC(=O)c4cn(C)c(C)c(-c5ccc(F)cc5C)c4=O)cc3F)ccnc2c1 [Compound 181, N-[3-Fluoro-4-[(7-methoxy-1,5-naphthyridin-4-yl)oxy]phenyl]-5-(4-fluoro-2-methylphenyl)-1,6-dimethyl-4-oxopyridine-3-carboxamide] | < 100 nM | > 300 nM
